Patent US11180483B2, “Substituted reverse pyrimidine Bmi-1 inhibitors” (PTC Therapeutics, Inc., priority 2012, dated 2021)

Key:
Bmi-1 = assay: Sandwich ELISA Assay (Bmi-1 ELISA) in HT-1080 cells; assay type: cell-based
How it was run: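 Bmi-1 in lysates was measured by a three-antibody ELISA with TMB, OD450 minus OD570 reference, interpolated on a GST-tagged recombinant Bmi-1 standard curve, 0-8000 pg/mL. Lysates came from HT-1080 cells treated 40-48 h with compound, final DMSO 0.5%.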

[1] = tested on: CSC population in a BXD GBM model; assay: In Vitro Cancer Stem Cell Assay, BXD GBM model (number of neurospheres); assay type: cell-based; details: 13 days, stated concentrations
Description: In Vitro Cancer Stem Cell Assay
The effect on inhibition of Bmi-1 function and reduction in the level of Bmi-1 protein by a compound of Formula (I) or a form thereof was tested in the in vitro pediatric Baylor Xenograft Derived (BXD) brain tumor model and in cells from primary patient cultures (PPC).
Cells were grown under conditions to measure either general cell growth (such as in fetal bovine serum (FBS) containing media in conventional tissue culture plates) or in conditions specifically for cancer stem cell (CSC) growth (low serum, nonadherent plates) to assess the effect of Bmi-1 inhibition and reduction in the level of Bmi-1 protein by a compound of Formula (I) on these populations. The cells were treated with a predetermined dose range of Compound 109 at fixed time points over a time period of from 24 hours to 13 days. The effect of inhibition on cell growth viability was quantitated using conventional 2D growth and neurosphere growth using a cell-counting kit (CCK) (supplied by Dojindo Molecular Technologies, Inc.).

U87-MG tumor cells = assay: In Vivo Survival Assay, orthotopic model of glioblastoma; design: species or system nu/nu mice; details: daily dosing begun 10 days after intracranial implantation, 40 day time period, versus vehicle and temozolomide (p<0.0001)
Description: A glioblastoma animal model was developed in which U87-MG tumor cells were injected intracranially into nu/nu mice and a tumor was allowed to become established over a 10 day period. The mice were dosed daily with vehicle, Compound 109 or temozolomide (a standard-of-care agent), as indicated. The comparative results for survival for each treatment group (n=10) from administration of vehicle, Compound 109 and temozolomide are shown in FIG. 4.
Cells were implanted intracranially into nude mice and dosing was begun 10 days later with either vehicle, Compound 109 or temozolomide.

Structure (SMILES): Cc1nc2ccc(F)cc2n1-c1nc(N)c(F)c(Nc2ccc(C(F)(F)F)cc2)n1 [Cpd 109, 5-fluoro-2-(6-fluoro-2-methyl-1H-benzimidazol-1-yl)-N-[4-(trifluoromethyl)phenyl]pyrimidine-4,6-diamine]
- EC50 (Bmi-1): 10 to 100 nM
- CSC population (as measured by number of neurospheres), FIG. 1 [1]: dose dependently reduced
- CSC population (as measured by number of neurospheres), FIG. 2 [1]: universally reduced
- survival of tumor bearing mice, FIG. 4 (U87-MG tumor cells): extended survival
